Results: US20050080027A1, “Optimized production of viral vectors derived from paroviruses in packaging and production cells by hsv infection or treatment with dna methylation inhibitors” (priority 2001, published 2005)

Tested on: HeLa t-derived AAV producer cells
Assay: Production of rAAV-(B7.2/GM-CSF) in producer cells using different inhibitors or helper viruses (transducing rAAV titer / AAV packaging efficiency)
Format: cell-based
Conditions: AdV MOI 10 alone or with 50 mM Na butyrate, 3 μM trichostatin A or 3 μM 5-azacytidine, or HSV-1 MOI 10 as helper virus, three days after infection
Source text: The use, according to the invention, of the DNA methylation inhibitor leads to an increase in packaging efficiency to a level of at least 10^6, especially 10^7, preferably 10^8, in particular 10^9, transducing particles/ml of crude lyzate or of at least 10^10, especially 10^11, preferably 10^12, in particular 10^13, genomic particles/ml of crude lyzate. This corresponds to 10^5 to 10^8 genomic particles per sown cell. The packaging efficiency can be determined indirectly by using suitable cell lines to determine the transducing AAV titer. While this was effected specifically in this present case by measuring the B7.2-positive cells by fluorescence-labeling B7.2 and counting by means of FACS analysis, another common protein detection method can be used in the case of other transgenes. The transducing titer depends on the detection method and on the cell type employed, which means that it is necessary to select suitable cells when choosing the system for detecting the corresponding parvovirus or AAV serotype, for example HeLa cells in the case of AAV-2. The genomic titer is independent of the cell type. The genomic titer can be ascertained by means of real-time PCR, for example as described by Veldwijk M R et al. (2002) Mol. Ther. 6:272-8.
AdV was administered either alone or in combination with 50 mM Na butyrate (But), 3 μM trichostatin A (TSA) or 3 μM 5-azacytidine (Aza) (Sigma, Deisenhofen). “Standard” means transient cotransfection of HeLa cells with pAAV-(B7.2/GM-CSF) and the AAV-2 rep/cap helper plasmid and infection with adenovirus (AdV) (MOI 10); harvesting, 3 days after infection;
rAAV-(B7.2/GM-CSF) was initially prepared using producer cell lines (e.g. 1×10^6 cells sown in a 6 cm diameter cell culture dish, with the cells being sown 1 day before the infection) by infecting with adenovirus (multiplicity of infection, MOI 10). […] After 72 hours, the lyzates were prepared by freeze/thaw lysis and freed from the cell debris. Adenovirus […] HSV-1 was heat-inactivated at 56° C. […]

Compound | AAV packaging efficiency (yield of transducing rAAV particles)
Nc1ncn([C@@H]2O[C@H](CO)[C@@H](O)[C@H]2O)c(=O)n1 [Aza, 5-azacytidine] | restore this AAV packaging efficiency
CC(/C=C/C(=O)NO)=C\[C@@H](C)C(=O)c1ccc(N(C)C)cc1 [TSA, trichostatin A] | did not result in an increase in AAV packaging efficiency
CCCC(=O)[O-].[Na+] [But, Na butyrate] | did not result in an increase in AAV packaging efficiency
